Series [1] deals with monoamine oxidase A and B (MAO-A and MAO-B). In words: Stability in the presence of monoamine oxidases (human liver mitochondria preparation). Set-up: half-life / microsomal CLint: dose or concentration left out as unconfirmed. The following applies: for stability in the presence of MAO (in words): human liver mitochondria preparation; for Remaining (t = 60 min) / half-life / microsomal CLint: human liver mitochondria; for half-life / microsomal CLint: human, pH 7.4. The protocol:
Liver Mitochondria Incubations. Human liver mitochondria (Xenotech H0610.M) were used.

Series [2] deals with T1, 5-HT2A (Homo sapiens, UniProt P28223). In words: 5-HT2A receptor radioligand binding ([3H]ketanserin). Here is the method: The binding affinities of disclosed compounds at the ketanserin binding site of the 5-HT2A receptor were determined in radioligand binding experiments.
T1 sequence (P28223 whole entry): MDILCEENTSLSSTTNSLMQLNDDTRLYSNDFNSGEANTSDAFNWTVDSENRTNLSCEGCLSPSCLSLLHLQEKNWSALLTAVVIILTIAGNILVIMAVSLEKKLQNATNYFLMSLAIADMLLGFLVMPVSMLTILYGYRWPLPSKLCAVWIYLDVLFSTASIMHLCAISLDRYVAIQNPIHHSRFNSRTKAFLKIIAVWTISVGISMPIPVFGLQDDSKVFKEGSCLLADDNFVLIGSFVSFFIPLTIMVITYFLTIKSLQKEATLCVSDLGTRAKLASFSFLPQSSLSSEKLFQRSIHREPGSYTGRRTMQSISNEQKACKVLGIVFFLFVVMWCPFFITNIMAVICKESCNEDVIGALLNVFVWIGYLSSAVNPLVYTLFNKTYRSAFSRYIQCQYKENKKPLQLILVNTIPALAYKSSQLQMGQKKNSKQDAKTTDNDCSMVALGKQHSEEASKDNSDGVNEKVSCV
Method. Affinity of the test compounds for the 5-HT2A receptor was determined in radioligand binding experiments with [^3H]ketanserin by WuXi AppTec (Hong Kong) Limited, using methods adapted from the literature and under conditions described in Table 4.

Series [3] addresses T2, 5-HT2B (Homo sapiens, UniProt P41595).
T2 construct: host or cells: HEK293
In words: FLIPR Ca2+ flux agonist assay at 5-HT2B. The conditions noted are these: for 5-HT2B % Act @ Max Dose: Ca2+ flux, HEK293, max dose. In kind it is cell-based. Background: Calcium flux is commonly read through the fluorescence of an indicator in the cells.

The target of series [4] is T3, 5-HT2C receptor (Homo sapiens, UniProt P28335).
T3 sequence (P28335 33-458): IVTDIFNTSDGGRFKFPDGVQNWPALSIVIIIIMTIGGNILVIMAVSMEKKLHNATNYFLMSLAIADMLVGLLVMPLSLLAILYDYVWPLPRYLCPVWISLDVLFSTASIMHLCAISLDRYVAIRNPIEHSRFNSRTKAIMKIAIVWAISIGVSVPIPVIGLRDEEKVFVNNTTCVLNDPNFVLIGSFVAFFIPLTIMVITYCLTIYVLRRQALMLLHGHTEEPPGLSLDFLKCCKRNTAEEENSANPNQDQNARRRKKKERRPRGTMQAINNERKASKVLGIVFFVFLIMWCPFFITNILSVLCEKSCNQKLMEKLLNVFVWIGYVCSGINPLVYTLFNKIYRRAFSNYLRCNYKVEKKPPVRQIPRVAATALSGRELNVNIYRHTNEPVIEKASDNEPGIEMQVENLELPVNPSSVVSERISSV
In words: cell-based. The conditions noted are these: Ca2+ flux. Format: cell-based.

The target of series [5] is T4, 5-HT1A (Homo sapiens, UniProt P08908).
T4 construct: host or cells: CHO cells
T4 sequence (P08908 1-422): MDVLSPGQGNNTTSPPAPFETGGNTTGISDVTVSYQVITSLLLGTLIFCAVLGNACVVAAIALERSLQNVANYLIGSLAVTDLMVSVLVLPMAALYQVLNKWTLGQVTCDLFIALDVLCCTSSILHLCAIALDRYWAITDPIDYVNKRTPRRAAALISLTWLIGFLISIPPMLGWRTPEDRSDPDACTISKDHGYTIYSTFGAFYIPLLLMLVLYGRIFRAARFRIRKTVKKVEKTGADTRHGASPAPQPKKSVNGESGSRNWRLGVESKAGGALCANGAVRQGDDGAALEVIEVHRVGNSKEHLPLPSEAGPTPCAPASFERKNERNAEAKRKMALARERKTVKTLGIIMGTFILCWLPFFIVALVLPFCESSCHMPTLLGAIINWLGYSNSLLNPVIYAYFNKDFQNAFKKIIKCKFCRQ
In words: FLIPR Ca2+ flux agonist assay at 5-HT1A. In kind it is cell-based. The following applies: for 5-HT1A % Act @ Max Dose: Ca2+ flux, CHO cells.

The nature of series [6]: Stability in rat brain homogenate. In kind it is in vitro ADME, male Sprague Dawley rats. The following applies: rat brain homogenate, 1 μM, 37° C.; for half-life at 1 µM: male, Sprague Dawley.
Series [7] deals with T1, 5-HT2A. In words: FLIPR Ca2+ flux agonist assay at 5-HT2A. In kind it is cell-based. Also noted: host or cells: HEK293. The conditions noted are these: for 5-HT2A % Act @ Max Dose: Ca2+ flux, HEK293, max dose.
Series [8] can be described thus: Metabolic stability in human liver microsomes (HLM). Set-up: microsomal CLint / half-life: dose or concentration left out as unconfirmed. The conditions noted are these: for half-life / microsomal CLint: both, human, pooled human liver microsomes, pH 7.4. A general note: Liver microsomes are vesicles of endoplasmic reticulum, rich in cytochrome P450 enzymes.
The nature of series [9]: Plasma pharmacokinetics in rats after intravenous administration. The following applies: for AUC(0-t) / C0 / half-life: male, Sprague Dawley, rat, plasma, iv, 1 mg/kg.
Where [10] appears, read: human liver mitochondria 0.30 mg protein/mL, 37° C.

As a reminder, the half-life is the time in which the quantity being followed falls by half. In general, microsomal CLint refers to the capacity of the preparation to metabolise the compound, expressed as a volume cleared per time. A word on the Ki: it is the equilibrium dissociation constant of an inhibitor or competing ligand from its target. Broadly, the EC50 is the midpoint of the concentration-response curve. A word on the AUC(0-t): it is the area under the concentration-time curve up to a stated or last time point.

T2 sequence (P41595 whole entry, species assumed): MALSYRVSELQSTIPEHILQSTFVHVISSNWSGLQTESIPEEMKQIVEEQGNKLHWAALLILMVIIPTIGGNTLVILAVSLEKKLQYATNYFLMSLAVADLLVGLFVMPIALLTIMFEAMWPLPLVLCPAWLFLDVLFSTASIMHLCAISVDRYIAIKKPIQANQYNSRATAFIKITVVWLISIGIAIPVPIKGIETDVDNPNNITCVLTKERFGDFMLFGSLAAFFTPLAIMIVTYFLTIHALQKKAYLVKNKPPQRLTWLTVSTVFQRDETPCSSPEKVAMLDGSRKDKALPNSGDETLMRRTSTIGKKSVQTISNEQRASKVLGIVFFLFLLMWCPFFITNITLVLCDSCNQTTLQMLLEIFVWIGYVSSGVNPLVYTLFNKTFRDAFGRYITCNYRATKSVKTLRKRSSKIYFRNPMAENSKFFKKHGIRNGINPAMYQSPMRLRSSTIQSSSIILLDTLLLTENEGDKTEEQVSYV

As for `CC(C)NCCc1c[nH]c2ccc(F)c(O)c12` [Compound 35, 5-fluoro-3-(2-(isopropylamino)ethyl)-1H-indol-4-ol], in series [1], the “stability in the presence of MAO (in words)” value (“stability in the presence” below) is recorded as “intermediate stability”, the “Remaining (t = 60 min)” value was 22.8%, the half-life was 29 min and the microsomal CLint turned out to be 79.6 µL/min/mg. The compound also had a Ki in [2] of 446 nM. Moreover, in series [3], the 50% effective concentration (EC50) was 95.9 nM and the “5-HT2B % Act @ Max Dose” value was determined as 27.19%. In series [4], the EC50 is 324 nM and the “5-HT2C % Act @ Max Dose” value came to 74.81%. In series [5], the EC50 turned out to be 93800 nM and the “5-HT1A % Act @ Max Dose” value came to 48.74%. In series [6], the half-life at 1 µM was determined as 45.6 min and the “% Compound Remaining (after 120 min)” value is 16.4%. Moreover, in [7], the midpoint of the response, the EC50, lay at 45.7 nM and the “5-HT2A % Act @ Max Dose” value stood at 94.57%. In series [8], this compound showed a half-life of 45.7 min and a microsomal CLint of 30.3 µL/min/mg. In series [9], the AUC(0-t) was found to be 126 ng·h/mL, the C0 turned out to be 348 ng/mL and the half-life is 26.4 min.

For the compound `CN(C)CCc1c[nH]c2ccc(F)cc12` [Compound 5-F-DMT, reference compound], in [1] (setting [10]), the “CLint(MAO)” value was 266 µL/min/mg and the t1/2 is 8.7 min. Moreover, in [1], the “stability in the presence” value is listed as “rapidly metabolized by MAO” and the “Remaining (t = 60 min)” value was determined as 0.9%. In series [2], this compound registered a Ki of 181 nM. In series [3], the midpoint of the response, the EC50, lay at 9.71 nM and the “5-HT2B % Act @ Max Dose” value turned out to be 17.6%. Also, in series [4], the EC50 was 4.94 nM and the “5-HT2C % Act @ Max Dose” value amounted to 93.9%. Further, in series [5], it took 5720 nM to reach a half-maximal effect (EC50) and the “5-HT1A % Act @ Max Dose” value is 72.9%. Moreover, in series [6], the t1/2 stood at 2.7 min and the “% Compound Remaining (after 120 min)” value came out at 0.0%. Further, in series [7], the EC50 was found to be 6.94 nM and the “5-HT2A % Act @ Max Dose” value is 94.7%. Also, in series [8] (HLM 0.50 mg protein/mL, NADPH, 37° C., 60 minutes), the “t1/2” value was determined as 4.6 min. Moreover, in series [9], the AUC(0-t) turned out to be 35.5 ng·h/mL, the C0 was 338 ng/mL and the half-life is 4.8 min. Also, in [9] (rats, IV 1 mg/kg), the “plasma half-life (in words)” value is reported as “very short half-lives”.

Regarding `CCNCCc1c[nH]c2ccc(F)c(O)c12` [Compound 28, 3-(2-(ethylamino)ethyl)-5-fluoro-1H-indol-4-ol], in series [1], the “stability in the presence” value was “intermediate stability”, the “Remaining (t = 60 min)” value is reported as 46.4%, the half-life came to 56.5 min and the microsomal CLint worked out at 40.9 µL/min/mg. In series [2], this compound yielded a Ki of 319 nM. Moreover, in [3], the EC50 came out at 38.6 nM and the “5-HT2B % Act @ Max Dose” value is listed as 19.83%. Also, in series [4], the EC50 worked out at 69.7 nM and the “5-HT2C % Act @ Max Dose” value amounted to 99.03%. Besides, in series [5], the EC50 stood at 9210 nM and the “5-HT1A % Act @ Max Dose” value worked out at 60.29%. In addition, in [6], the half-life at 1 µM was determined as 15.4 min and the “% Compound Remaining (after 120 min)” value is 0.4%. In [7], a half-maximal response (EC50) required 10.5 nM and the “5-HT2A % Act @ Max Dose” value was found to be 92.60%. In [8], this compound gave a half-life of 42.3 min and a microsomal CLint of 32.8 µL/min/mg. In series [9], this compound had an AUC(0-t) of 86.7 ng·h/mL, a C0 of 249 ng/mL and a half-life of 27.6 min.

Source of the values: patent publication US20260234107A1, “TRYPTAMINES AND METHODS OF TREATING MOOD DISORDERS” (priority 2022, published 2026).
